Data on 4 compounds can be found in article PMC4255739 (Journal of Medicinal Chemistry, 2014).

For data set [1], the target named is T1, MMP-13 (Homo sapiens, UniProt P45452). As to the kind of experiment: Dual inhibition kinetics. It counts as biochemical.
For data set [2], the target named is T1, MMP-13. As to the kind of experiment: Cartilage explant assay. It counts as biochemical. The note with it: read-out: inhibition of cartilage degradation.
The target of data set [3] is CYP3A4 (Homo sapiens, UniProt P08684). As to the kind of experiment: CYP450 panel inhibition, CYP3A4. The note with it: human liver microsomes, pH 7.4, probe testosterone. (Microsomes from liver hold many membrane-bound enzymes, among them those of drug oxidation.)
Data set [4] has as its target T2, cathepsin K (Homo sapiens, UniProt P43235).
T2 sequence (P43235 115-329): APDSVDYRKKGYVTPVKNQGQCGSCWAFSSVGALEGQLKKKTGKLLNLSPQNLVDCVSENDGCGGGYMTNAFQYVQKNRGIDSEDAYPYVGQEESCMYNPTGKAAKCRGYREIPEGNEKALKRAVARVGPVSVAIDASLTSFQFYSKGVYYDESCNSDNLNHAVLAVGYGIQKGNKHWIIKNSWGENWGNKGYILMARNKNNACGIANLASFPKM
As to the kind of experiment: Protease profiling panel, cathepsin K. The data set is classed as biochemical. The note with it: read-out: highest inhibitory activity against cathepsin K.

Data set [5] addresses T3, caspase 5 (Homo sapiens, UniProt P51878).
T3 sequence (P51878 138-434 limits assumed): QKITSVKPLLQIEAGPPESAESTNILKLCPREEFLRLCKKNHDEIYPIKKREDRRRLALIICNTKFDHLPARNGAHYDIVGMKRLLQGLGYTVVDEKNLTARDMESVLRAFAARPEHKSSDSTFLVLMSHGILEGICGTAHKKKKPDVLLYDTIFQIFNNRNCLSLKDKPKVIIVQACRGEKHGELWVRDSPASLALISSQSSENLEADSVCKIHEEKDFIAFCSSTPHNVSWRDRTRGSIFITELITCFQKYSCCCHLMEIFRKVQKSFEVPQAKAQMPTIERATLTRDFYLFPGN
As to the kind of experiment: Protease profiling panel, caspase 5. The data set is classed as biochemical. The note with it: 20 μM to 0.1 nM range.

Data set [6] relates to MMP-1. Particulars: read-out: IC50 MMP-1; antitarget selectivity; cited from earlier work.
The test system of data set [7] is MMP-8. The note with it: read-out: IC50 MMP-8; antitarget selectivity; cited from earlier work.
In data set [8] the target is T1, MMP-13. As to the kind of experiment: Single inhibitor kinetics, MMP-13 hydrolysis of fTHP-15. The data set is classed as biochemical.

CYP3A4, sequence (P08684 whole entry): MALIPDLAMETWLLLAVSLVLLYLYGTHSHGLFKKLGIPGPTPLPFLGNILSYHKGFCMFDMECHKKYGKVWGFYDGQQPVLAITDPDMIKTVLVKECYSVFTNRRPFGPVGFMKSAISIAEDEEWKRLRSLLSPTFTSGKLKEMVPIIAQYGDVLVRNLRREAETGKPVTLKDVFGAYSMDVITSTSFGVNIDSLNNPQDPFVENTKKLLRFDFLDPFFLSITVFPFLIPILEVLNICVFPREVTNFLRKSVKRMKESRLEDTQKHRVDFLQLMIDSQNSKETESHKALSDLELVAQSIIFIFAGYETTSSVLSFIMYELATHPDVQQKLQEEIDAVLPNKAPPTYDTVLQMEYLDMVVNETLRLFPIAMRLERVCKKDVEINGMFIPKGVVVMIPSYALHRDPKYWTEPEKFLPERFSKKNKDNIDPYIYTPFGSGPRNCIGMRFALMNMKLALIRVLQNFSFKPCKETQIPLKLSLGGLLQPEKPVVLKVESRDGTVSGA

Take `Oc1nc(SCc2ccc(Cl)cc2)nc2c1CCC2` [Compound 1]: the “B value (Yonetani–Theorell)” value is under 1 in data set [1] (1 (0–2 μM) in combination with 6 (AHA, 0–1.25 mM), B<1 = synergistic binding); under 1 in data set [1] (1 in combination with 4, B<1 = positive cooperativity); under 1 in data set [1] (1 in combination with 5, B<1 = synergistic binding). The inhibition at 10 µM in data set [2] was found to be 69 ± 17%. The inhibition at 20 µM in data set [3] amounted to 14%.

What is called IC50 is the concentration that inhibits the measured activity by half. In the case of `Cc1ccc(CSc2nc(O)c3c(n2)CCC3)cc1` [Compound 2], the inhibition at 20 µM in data set [4] and in data set [3] was 20% in each case. Further, in data set [5], the “activity against caspase 5 on inspection of dose response” value is recorded as “artifactual”. The IC50 in data set [6] and in data set [7] was over 40 µM in each case.

Regarding `COC(=O)c1ccc(CSc2nc3c(c(=O)[nH]2)CCC3)cc1` [Compound 3], the IC50 in data set [6] and in data set [7] was over 40 µM each time.

For orientation: pKi means the negative decadic logarithm of the Ki, by convention in mol/L. Low values mean a large Ki, high ones a small Ki. For orientation: Ki means a dissociation constant, usually derived from enzyme kinetics or from competition with a known ligand. Turning to `CC(=O)NO` [Compound 6, N-hydroxyacetamide], the pKi in data set [8] (from fTHP-15 Ki) worked out at 2.9. The Ki in data set [8] (read-out: fTHP-15 Ki, fTHP-15 substrate, mixed inhibition model, nonlinear regression) came out at 1190 µM.
